Laboratory results as given in patent publication US9175077B2, “Nucleic acids encoding biologically active polypeptides derived from a novel early stage pregnancy factor designated maternin (MA)” (NOBEL BIOSCIENCES LLC, priority 1999, dated 2015).

What was measured:
[1] = tested on: gliobastoma HTB16; assay: Confocal microscopy apoptosis; assay type: cell-based, human; settings: 200 ng/ml; 24 hrs
Description: (§1) More extensive studies of the effects of MA and with truncated synthetic forms of MA (MAS) on a wide range of other human tumor cells were carried out using three-dimensional confocal microscopy. Cells were cultured and then seeded onto gelatinized glass chamber slides and incubated 24 hrs with the various test materials. The slides were then fixed with formalin and treated serially with Triton X-100 (0.01%) for 10 min at 25°, 0.4 ug/ml fluorescein isothiocyanate (FITC)-labeled Phalloidin (Sigma Chem. Co.) at room temperature for 30 min to bind actin, washed with PBS and the DNA stained with Propidium iodide (PI) (0.5 ug·ml) (Sigma Chemical Co.), for 15 min. The stained slides were washed and mounted on slow fade (Molecular Probes, Inc., Eugene, Oreg.) and examined through a dual emission filter XF53 (Omega, Inc., Brattlesboro, Va.) by fluorescent microscopy. In some experiments only DNA staining was performed. In these instances Triton X-100 was not used. The slides were stained with PI and examined for cell morphology and chromatin degradation under 3D confocal microscopy.

[2] = tested on: leukemia and lymphoma cell lines: HUT78, DAVDI, HG, SULTAN, T-cell lymphoma; assay: Confocal microscopy apoptosis; assay type: cell-based, human; settings: 200 ng/ml; 24 hrs
Description: as §1

[3] = tested on: carcinoma of the pancreas CRL 1682; assay: Confocal microscopy apoptosis; assay type: cell-based, human; settings: 200 ng/ml; 24 hrs
Description: as §1

[4] = tested on: melanoma HTB67; assay: Confocal microscopy apoptosis; assay type: cell-based, human; settings: 200 ng/ml; 24 hrs
Description: as §1

[5] = tested on: KS Y-1 cells; assay: Confocal microscopy apoptosis; assay type: cell-based, human; settings: 200 ng/ml; 24 hrs
Description: as §1

[6] = tested on: carcinoma of the colon; assay: Confocal microscopy apoptosis; assay type: cell-based, human; settings: 200 ng/ml; 24 hrs
Description: as §1

[7] = tested on: Ewing's sarcoma; assay: Confocal microscopy apoptosis; assay type: cell-based, human; settings: 200 ng/ml; 24 hrs
Description: as §1

[8] = tested on: prostate carcinoma cell line PC4; assay: Confocal microscopy apoptosis; assay type: cell-based, human; settings: 200 ng/ml; 24 hrs
Description: as §1

[9] = tested on: carcinoma of the kidney HTB46; assay: Confocal microscopy apoptosis; assay type: cell-based, human; settings: 200 ng/ml; 24 hrs
Description: as §1

[10] = tested on: fibrosarcoma 4TB166; assay: Confocal microscopy apoptosis; assay type: cell-based, human; settings: 200 ng/ml; 24 hrs
Description: as §1

[11] = tested on: carcinoma of the lung HTB184; assay: Confocal microscopy apoptosis; assay type: cell-based, human; settings: 200 ng/ml; 24 hrs
Description: as §1

[12] = tested on: carcinoma of the breast HTB124; assay: Confocal microscopy apoptosis; assay type: cell-based, human; settings: 200 ng/ml; 24 hrs
Description: as §1

[13] = tested on: prostate carcinoma cell line PC3; assay: Confocal microscopy apoptosis; assay type: cell-based, human; settings: 200 ng/ml; 24 hrs
Description: as §1

[14] = tested on: human primitive hematopoietic stem cells; assay: Long term cultures (LTC-IC, stroma-free) of CD34+, CD38− cells from human BMMC; assay type: cell-based
Description: In the human system, a long-term culture-initiating assay (LTC-IC) can be used to detect cells that can generate myeloid clonogenic cells (CFC/colony forming cells) in long-term cultures for a minimum of 5 weeks. Bone marrow stromal was produced by culturing 107 fresh BM-MNC in a T25 flash for at least 2 weeks in 5 mL stromal medium; 12.5% horse [HS] and 12.5% fetal calf serum [FCS]; both from hyclone [Logan, Utah], Iscove's modified Dulbecco's medium [IMDM, GIBCO-BRL], 2-mercaptoethanol [Sigma, st. Louis, Mo.], 10^−6 mol/L hydrocortisone [Sigma] and penicillin/streptomycine.
One or 2 days before co-cultures, bone marrow stroma was irradiated with 15Gy and plated at 7×10^3/cm^2 in 24-well plates to form pre-established stromal layers for the long-term cultures. Limiting dilution was 1 to 1000 CD34+ bone marrow/cord blood cells and equivalent aliquots, i.e., limiting dilutions of the cells grown in long-term cultures stroma-free cultures after 2 to 20 weeks were seeded on top of the irradiated bone marrow stroma in culture medium containing IMDM, 12.5% HS, 12.5% FCS, 2-mercptoethanol, and 10^−6 mon-hydrocortisone for 5 weeks LTC-IC assay period. Non-adherent cells were removed from the cultures, combined with the corresponding trypsinized adherent cells, washed and assayed for colony forming units (CFU-Cs) in methylcellulose medium containing 1.3% methylcellulose (Fluka Chemilka Biochemika, buck\hs, Switzerland), 30% FCS, EPO (3 U/ml), IL-3 (20 ng/ml), G-CSF (20 ng/ml), GM-CSF (20 ng/ml) and KL (c-kit, 50 ng/ml). These cultures were incubated at 37° C. and colonies were scored 2 to 3 weeks later. LTC-IC enumeration was based on the number of CFU-C scored in the limiting assays [LDA] and another technique.
Stroma-free long-term cultures were performed as follows. 2 to 10×10^3 CD34+/CD34^−CD38^− from bone marrow/CB/PBMC cells were cultured in quadrutriplicate flat bottomed 24 well plates in 1 ml to of IMDM supplemented with 10% FCS and the following cytokines: IL-3 (10 ng/ml), IL-6 (10 ng/ml), KL [c-kit 50 ng/ml, FL (50 ng/ml) and TPO (10 U/ml), which added, alone or in combination of two or more factors, to each series of microwells twice a week. The wells were grown at 37° C. and share a number of features with in vivo murine long-term repopulating cells. These include assay for cobblestone areas colony forming cells (CAFC), high proliferative potentials colony-forming cells (HPP-CFC), CFU-GEMM, CFU-B1 (blast colony forming units).

[15] = Lethally irradiated rats and mice; settings: treated at time of radiation, 3×/week for 4 weeks
Description: In order to determine in vivo relevance of the prohematopoietic effects of MA treated rats and mice under several conditions of bone marrow suppression. First, the effects of native MA and pMA and of the synthetic 15-mer MAS1 were treated for their capacity to reduce or prevent the effects of lethal doses of gamma irradiation. […] MA, pMA, MAS1, and various control polypeptides were given 48 and 24 hrs before, during, or 24 hrs after radiation. The animals treated prior to radiation received either 100 ng vs. 1 ug (rats) or 50 ng vs. 500 ng (mice) as 2 subcutaneous injections.
It is not yet possible to determine the precise molar dose of pMA because of less certainty on its full-length sequence.
To ascertain that the MA effect did promote hematopoiesis in these animals we examined the bone marrow for cellularity and colony formation and determined peripheral blood counts.

[16] = Lethal dose taxol in Sprague-Dawley rats; assay type: in vivo; settings: for survival of pretreated animals: low dose, two doses 24 and 48 hrs before taxol; for survival maintained to day 80 / survival on day 5: therapy maintained 28 days; for survival on day 5: low or high dose
Description: Sprague-Dawley rats were given taxol in large lethal doses, 4.5 mg in one I.P. inoculation. […] Bone marrow suppression can also be a side effect of the clinical use of taxol.^179 As in the radiation experiments, either MA, pMA, MAS1, or various polypeptide controls were given subcutaneously only in two doses 24 and 48 hrs before taxol treatment or were given 3×/week for 4 weeks. […]

[17] = Acutely bled rats; assay type: in vivo, Sprague-Dawley rats; settings: i.p. 24 and 48 hrs after 35-40% blood loss
Source text: To delineate the effects of MA on hematopoiesis in the absence of any external bone marrow suppression, blood (35-40% of total blood volume) was removed from five Sprague-Dawley rats by intracardiac puncture. […] Each panel illustrates the mean values for the three animals treated with MAS1. Thus, MA and related derivatives have potent pro-hematopoietic effects.

[18] = tested on: HIV-1 gene expression; assay: HIV-1 transgenic mice, pups feeding from treated mothers; assay type: in vivo
Source text: The transgenic mice contain 5.1 kb of the HIV-1 proviral genome, lacking gag and pol genes and 2.3 kb of vector.^172 The newly developed transgenic rat contains the same HIV-1 sequences and vector.
Twenty-four hours after birth the mothers were either inoculated subcutaneously daily for 10 days or received an implanted osmotic pump delivering 30-150 pmoles of either native or synthetic MA or pMA. Various control polypeptides were used at equimolar or vast molar excess. The newborn pups were then allowed to feed from the foster mother breast milk over the entire period. Since the animals are at risk from needle inoculation, breastfeeding was the chosen route for MA administration.
In these experiments total RNA was extracted from samples of skin RNA206 10 days after birth of MA treated and untreated mice. One ug of RNA was reverse transcribed into cDNA using random hexamer primer and […] reverse transcriptase (Life Technologies, Inc.) in a final vol. Of 30 ul. Three ul of each reaction was used for PCR amplification of the HIV-1 gene sequences (env, tat, nef, and rev) as described […], and glyceraldehyde 3-phosphate dehydrogenase (GAPDH) was amplified from each sample for normalization. After 25 cycles, 10% of the products were resolved by electrophoresis on 2% agarose gels, transferred to nitrocellulose membranes by Southern blotting, and hybridized to fluorescein isthiocyanate-labeled oligonucleotide probes complementary to internal sequences of the amplicons […]. Bound probes were detected by chemiluminescence (Amersham) and relative mRNA levels determined by densitrometry after normalization with GAPDH mRNA levels.

[19] = tested on: primary human tumor cells; assay: Short-term cultured primary human tumor cells, growth and apoptosis; assay type: cell-based; settings: 200 ng/ml; 3 days culture; 10% serum
Source text: Because cell lines might be more susceptible to growth inhibition and apoptosis, the effects of MA on short-term cultured human tumor cells were investigated. The cells were obtained from biopsied specimens and immediately cultured (primary cultures). The results were similar to the results with tumor cell lines. […] FIG. 3, Panels A and B are representative results with primary breast and prostate carcinomas respectively. These pro-apoptotic effects of MA on human tumor cells were with 10% serum rather than the lower concentrations sometimes used to make cells more susceptible to apoptosis.
More extensive studies of primary human tumor cells were carried out utilizing confocal microscopy.
With the exception of the kidney carcinoma, which was a biopsy sample direct from the tumor, the samples were from pleural effusions which developed after metastasis to the lung. The breast, prostate, and colon carcinomas were freshly obtained and immediately cultured, whereas the lung and kidney carcinomas went through 22 and 18 passes respectively before they were used in these studies. All cells were examined after 3 days culture in the presence or absence of MA (200 ng/ml) or other treatments. […]

[20] = tested on: human tumor cells; assay type: cell-based; settings: controls at equimolar or 5 to 10× greater concentrations
Description: The anti-tumor activities of MA were assessed in several in vitro and in vivo systems using published methods.^166 In vitro studies were with a wide variety of human tumor cell lines as well as short-term cultures of cells from biopsy samples obtained from tumors. The assays included effects of MA on colony formation, cell number and viability (trypan blue), and apoptosis. Four measures of microscopy were used. In vivo studies included the effects of MA on tumors induced in immunodeficient mice by xenotransplanted various human neoplastic cells, spontaneous neoplasms of immuno-competent mice and rats, and a few standard tumors in immuno-competent mice. Representative examples are presented.
Cells (5×10^5/ml) were seeded in modified Eagle's medium supplemented with 10% FCS, 10% conditioned medium form PHA stimulated human lymphocytes, 2 mM glutamine in 0.8% V/V methylcellulose with or without various treatments in a final volume of 1.0 ml. Then 0.1 ml aliquots were seeded in 96 well flat bottom microtest plates and incubated at 37° C. in 5% CO2 in air for 7 days. Aggregates containing 50 cells or more were scored as colonies.
5×10^5 cells were seeded in triplicate on 24 gelatin coated wells in conditions as described for Panel A and treated with the indicated test materials. After 3 days the cells were dislodged from their monolayers by gentle pipetting with cell dissociation buffer (Life Technologies), counted after trypan blue staining and aliquots examined for Annexin V staining by indirect IFA […].
Studies of the anti-tumor cell effects of MA were extended to other carcinomas, melanoma, some hematopoietic tumors, and carcinomas of the colon, prostate, breast, lung, brain, pancreas, and kidney-using cell lines from these tumors. […] Many more types of tumor cells were studied utilizing other assays (see below).

With “VRFESIRLPGCPRGV (listed as Homo sapiens) [MAS1]” the induction of apoptosis [1] was “induced apoptosis”, the induction of apoptosis [2] was “induced apoptosis” and the induction of apoptosis [3] was “induced apoptosis”. For the same substance, the induction of apoptosis [4] was “induced apoptosis”, the induction of apoptosis [5] was “induced apoptosis” and the induction of apoptosis [6] was “induced apoptosis”. For the same substance, the induction of apoptosis [7] was “induced apoptosis”, the induction of apoptosis [8] was “induced apoptosis” and the induction of apoptosis [9] was “induced apoptosis”. For the same substance, the induction of apoptosis [10] was “induced apoptosis”, the induction of apoptosis [11] was “induced apoptosis” and the induction of apoptosis [12] was “induced apoptosis”. For the same substance, the induction of apoptosis [13] was “induced apoptosis”, the “Rx MAS1: % of CD1” value [14] was 35% and the “Rx MAS1: % of CD68” value [14] was 27%. The survival ([15]; higher dose, over 100 days) was 100%, the survival ([15]; lowest doses) was 80% and the “survival of pretreated animals” value [16] was “Sixty-percent”. The “survival maintained to day 80” value ([16]; high dose (1000 ng)) was about 80%, the “survival maintained to day 80” value ([16]; low dose (100 ng)) was “about 60%” and the “survival on day 5” value [16] was 100%. For the same substance, the “recovery of peripheral blood cells” value [17] was “prompt recovery”.
With “pMA: natural peptide 38 amino acids in length, β-hCG 55-92 (SEQ ID NO: 3) (VVCNYRDVRFESIRLPGCPRGVNPVVSYAVALSCQCAL; listed as Homo sapiens)” the “weight over the ten day period” value ([18]; 30-150 pmoles) was “quadrupled their weight”, the “survival / development of pups (qualitative)” value ([18]; mothers treated, pups breast fed) was “survived” and the “HIV-1 viral expression in tissues” value ([18]; mouse, in vivo) was “marked inhibition of viral expression”. For the same substance, the survival ([15]; higher dose, over 100 days) was 100%, the “growth inhibition and apoptosis of primary human tumor cells” value [19] was “effective” and the “inhibition of growth / induction of apoptosis of neoplastic cells” value [20] was “induce apoptotic death”. For the same substance, the “survival of pretreated animals” value [16] was “Sixty-percent”, the “survival maintained to day 80” value ([16]; high dose (1000 ng)) was about 80% and the “survival maintained to day 80” value ([16]; low dose (100 ng)) was “about 60%”. The “survival on day 5” value [16] was 100%.
